Measurements taken from patent publication US11117939B2, “Polypeptides and antibodies to treat skin conditions associated with overproduction of sebum” (University of Sasketchewan, priority 2015, dated 2021).

Tested on: SZ95 sebocytes
Assay: Detection of lipids (nile red fluorescence) in SZ95 sebocytes
Type: cell-based, human
Conditions: for production of neutral (sebaceous) lipids: 24 vs 48 hours
Method: C., Seltmann, H., Neitzel, H. & Orfanos, C. E. (1999) J. Invest. Dermatol. 113, 1011-1020], were maintained in Sebomed Basal Medium (Biochrom, Berlin) supplemented with 5 ng/ml human epidermal growth factor (Sigma), 10% heat inactivated FCS (Biochrom GmbH, Berlin, Germany), 50 ug/ml gentamicin (GIBCO/BRL), and 1 mM Ca2+, in a humidified atmosphere of 5% CO2 at 37° C. Shortly before the experiments were performed, BSA-medium [constituted of Sebomed Basal Medium supplemented with 1 mg/ml fatty acid-free BSA (Boehringer Mannheim), 1 mM Ca2+, and 10^-6 M linoleic acid (Sigma)] or Sebomed Complete Medium (Biochrom) was added to the cells. The SZ95 human sebocytes used for the experiments were between passages 31 and 35. The cells were subcultured at 60-70% confluence. The cultures were maintained at 37° C. in a humidified 5% CO2 incubator and the medium was replaced every 2-3 days.
The cells were cultured in 96-well tissue culture plates at a density of 2,000 cells per well for 2 days. The wells were then washed with PBS, and Sebomed Complete Medium was added. After 2 days, the medium was harvested, and fresh medium without or with INDIP peptide (SEQ ID NO: 2) at a concentration of 0, 0.1, 1, 10, or 20 μM in the presence and absence of Linoleic acid (5×10^−5 and 10^−4 M) and Testosterone (2×10^−8 M) was given to the cells. The supernatants were harvested 24 or 48 h later; the wells were washed twice with PBS, and 100 μl of a 10 μg/ml nile red solution in PBS was added to each well. 10 uM of scrambled INDIP peptide (i.e. a scrambled version of SEQ ID NO: 2) was used as the negative control peptide. The plates were then incubated at 37° C. for 30 min, and the released fluorescence was read on a Molecular Devices SPECTRAmax Gemini spectrofluorometer. The results are presented as percentages of the absolute fluorescence units in comparison with the controls, using 485 nm excitation and 565 nm emission filters for neutral lipids and 540 nm excitation and 620 nm emission filters for polar lipids. Experiments were performed in triplicate, with 10 wells evaluated for each data point in each experiment.

YGRKKRRQRRRGEPHKFKREW ((1)..(11) Tat; (12)..(21) Insig-1) [INDIP peptide (SEQ ID NO: 2), PTD-fused (TAT protein transduction domain) Insig-1 ubiquitination region peptide]
production of neutral (sebaceous) lipids (10 μM peptide, occasionally, absence or presence of linoleic acid and testosterone): significantly reduced
production of neutral (sebaceous) lipids (20 μM peptide, greater effect as time progressed, absence or presence of linoleic acid and testosterone): significantly reduced
sebaceous differentiation (all conditions tested, with and without linoleic acid and testosterone): able to reduce
lipid production (application to SZ95 sebocytes in vitro): Significant Reduction
polar lipids (membrane synthesis, synthetic activity of the cells) (concomitant with the neutral lipid reduction, absence or presence of linoleic acid and testosterone): concomitant reduction
